Test results published in PMC11239673, “Structural basis for the bi-specificity of USP25 and USP28 inhibitors” (EMBO Reports, 2024).
Values joined by “and” are separate entries in the source; they are usually repeats but may differ in a detail not shown here. Identical values can stand only once. Like-named read-outs stand apart in the source and are kept apart here.

Columns and labels:
USP28Δtip Q315A = molecular target: T1, USP28Δtip Q315A (Homo sapiens, UniProt Q96RU2, INS458SGSG/Q315A); assay: Ub-Rho110 dose–response assay, USP28Δtip Q315A; type: biochemical; conditions: for IC50: USP28 - Q315A
T1 sequence (Q96RU2 with tags, fused parts or gaps Q315A/INS458SGSG): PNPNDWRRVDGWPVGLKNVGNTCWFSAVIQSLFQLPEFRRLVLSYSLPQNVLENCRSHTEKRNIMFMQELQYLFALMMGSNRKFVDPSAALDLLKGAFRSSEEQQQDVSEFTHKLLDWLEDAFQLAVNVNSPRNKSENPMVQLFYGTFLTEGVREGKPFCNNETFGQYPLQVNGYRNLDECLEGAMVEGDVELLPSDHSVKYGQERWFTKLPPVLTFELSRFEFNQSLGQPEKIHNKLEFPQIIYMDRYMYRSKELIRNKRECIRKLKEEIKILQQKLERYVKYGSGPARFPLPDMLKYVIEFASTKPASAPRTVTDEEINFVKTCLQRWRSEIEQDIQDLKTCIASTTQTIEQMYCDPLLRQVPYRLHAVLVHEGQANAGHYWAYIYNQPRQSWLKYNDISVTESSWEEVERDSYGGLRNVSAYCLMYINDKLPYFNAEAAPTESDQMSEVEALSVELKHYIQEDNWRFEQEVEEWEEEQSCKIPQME

USP28Δtip E366Q = molecular target: T2, USP28Δtip E366Q (Homo sapiens, UniProt Q96RU2, E366Q/INS458SGSG); assay: Ub-Rho110 dose–response assay, USP28Δtip E366Q; type: biochemical; conditions: for IC50: USP28 - E366Q
T2 sequence (Q96RU2 with tags, fused parts or gaps E366Q/INS458SGSG): T1 sequence (Q96RU2 with tags, fused parts or gaps Q315A/INS458SGSG)

USP28Δtip WT = molecular target: T3, USP28Δtip WT (Homo sapiens, UniProt Q96RU2, INS458SGSG); assay: Ub-Rho110 dose–response assay, USP28Δtip wt; type: biochemical
T3 sequence (Q96RU2 with tags, fused parts or gaps INS458SGSG): T1 sequence (Q96RU2 with tags, fused parts or gaps Q315A/INS458SGSG)

USP25Δtip H268A = molecular target: T4, USP25Δtip H268A (Homo sapiens, UniProt Q9UHP3, DEL465-537/H268A/INS464GSGSGS); assay: Ub-Rho110 dose–response assay, USP25Δtip H268A; type: biochemical
T4 construct: 6xHis or thioredoxin-6xHis (N, cleaved yes); made in house; host or cells: E. coli BL21star (DE3)
T4 sequence (Q9UHP3 with tags, fused parts or gaps H268A/DEL465-477/P478G/DEL482-535/A536G/P537S limits assumed): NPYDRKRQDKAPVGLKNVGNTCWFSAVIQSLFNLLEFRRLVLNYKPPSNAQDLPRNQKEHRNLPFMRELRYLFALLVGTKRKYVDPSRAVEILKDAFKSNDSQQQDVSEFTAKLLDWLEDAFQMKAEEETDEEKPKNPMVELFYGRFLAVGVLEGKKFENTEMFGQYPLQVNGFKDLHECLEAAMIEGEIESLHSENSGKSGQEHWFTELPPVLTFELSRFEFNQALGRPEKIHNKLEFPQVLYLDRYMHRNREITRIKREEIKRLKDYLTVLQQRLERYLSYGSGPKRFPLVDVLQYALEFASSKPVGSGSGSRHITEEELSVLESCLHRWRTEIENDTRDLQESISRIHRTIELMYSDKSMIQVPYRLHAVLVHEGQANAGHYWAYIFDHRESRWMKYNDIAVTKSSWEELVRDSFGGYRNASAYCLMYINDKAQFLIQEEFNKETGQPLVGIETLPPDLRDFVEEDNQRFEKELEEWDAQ

USP25fl = molecular target: T5, USP25fl (Homo sapiens, UniProt Q9UHP3); assay: SEC-MALS analysis of the oligomeric state of USP25fl after inhibitor incubation; conditions: for MW [kDa]: SEC-MALS molar mass of USP25-fl
T5 sequence (Q9UHP3 1-1055): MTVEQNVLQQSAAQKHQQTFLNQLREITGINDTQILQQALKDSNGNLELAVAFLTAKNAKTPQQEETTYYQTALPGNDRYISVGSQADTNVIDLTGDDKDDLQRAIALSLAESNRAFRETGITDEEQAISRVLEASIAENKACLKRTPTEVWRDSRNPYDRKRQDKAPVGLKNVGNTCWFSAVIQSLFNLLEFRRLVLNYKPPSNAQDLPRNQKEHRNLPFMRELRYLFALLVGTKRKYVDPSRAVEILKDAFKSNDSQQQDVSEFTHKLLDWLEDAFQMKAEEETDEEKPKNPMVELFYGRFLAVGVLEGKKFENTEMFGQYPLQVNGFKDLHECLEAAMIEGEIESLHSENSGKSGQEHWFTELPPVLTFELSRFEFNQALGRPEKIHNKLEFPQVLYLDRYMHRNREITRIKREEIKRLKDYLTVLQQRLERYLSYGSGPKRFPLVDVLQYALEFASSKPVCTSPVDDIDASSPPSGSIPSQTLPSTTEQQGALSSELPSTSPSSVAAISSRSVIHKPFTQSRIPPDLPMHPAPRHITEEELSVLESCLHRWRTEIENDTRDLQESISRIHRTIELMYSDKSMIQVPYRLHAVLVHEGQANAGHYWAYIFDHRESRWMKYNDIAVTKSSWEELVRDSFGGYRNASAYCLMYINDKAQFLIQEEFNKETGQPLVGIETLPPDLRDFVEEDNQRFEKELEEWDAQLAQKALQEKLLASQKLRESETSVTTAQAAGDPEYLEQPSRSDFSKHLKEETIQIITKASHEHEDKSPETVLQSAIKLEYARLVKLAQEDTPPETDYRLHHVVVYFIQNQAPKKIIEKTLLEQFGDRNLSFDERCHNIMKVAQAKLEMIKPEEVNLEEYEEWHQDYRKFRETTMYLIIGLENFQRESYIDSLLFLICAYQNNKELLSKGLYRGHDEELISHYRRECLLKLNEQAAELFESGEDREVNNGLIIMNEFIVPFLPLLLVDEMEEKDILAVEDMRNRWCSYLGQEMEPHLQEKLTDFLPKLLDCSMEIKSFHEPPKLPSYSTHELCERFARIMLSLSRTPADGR

[1] = mean of replicates, read-out: IC50, mean and SD
[2] = single replicates, read-out: IC50 of each replicate curve (unlabelled line above mean and SD)
[3] = read-out: relative inhibition [%] - USP28 - Q315A
[4] = read-out: relative inhibition [%] - USP28 - E366Q
[5] = read-out: relative inhibition [%] - USP28 - WT
[6] = 20 µM USP25, 60 µM inhibitor, mean of experiments
[7] = 20 µM USP25, 60 µM inhibitor, single experiments

## Cc1ccc2c(N)c(C(=O)NC3CCc4cc(N5CC6CCC(C5)N6)ccc4C3)sc2n1 (stereo not drawn) [FT206]
USP28Δtip Q315A
  t-test vs. USP28 WT control - Q315A: 6.868E-03
USP28Δtip Q315A; [1]
  IC50: 360 nM
USP28Δtip Q315A; [2]
  IC50: 492 nM and 375 nM and 444 nM and 267 nM and 246 nM
USP28Δtip Q315A; [3]
  inhibition at 11.11 µM: 96.4%
  inhibition at 33.33 µM: 97.8%
  inhibition at 100 µM: 98.7%
  inhibition at […]: 92.1% and 78.6% and 44.2%
USP28Δtip E366Q
  t-test vs. USP28 WT control - E366Q: 3.570E-04
USP28Δtip E366Q; [1]
  IC50: 17200 nM
USP28Δtip E366Q; [2]
  IC50: 21300 nM and 17600 nM and 14700 nM and 24400 nM and 11500 nM and 13700 nM
USP28Δtip E366Q; [4]
  inhibition at 11.11 µM: 34.7%
  inhibition at 33.33 µM: 57.1%
  inhibition at 100 µM: 78.7%
USP28Δtip WT; USP28 - WT, single replicates, read-out: IC50 of each replicate curve (unlabelled line above mean and SD)
  IC50: 184 nM and 209 nM and 213 nM and 88.9 nM and 91.1 nM and 101 nM
USP28Δtip WT; USP28Δtip 20 nM, Ub-Rho110 250 nM, 15 min preincubation, average ± SD, n ≥ 5, read-out: IC50, USP28 variants, WT
  IC50: 150 ± 60 nM
USP28Δtip WT; [5]
  inhibition at 11.11 µM: 98.6%
  inhibition at 33.33 µM: 99.3%
  inhibition at 100 µM: 99.6%
  inhibition at […]: 97.5% and 91.4% and 73.1%
USP25Δtip H268A; p value, inhibitor IC50 on USP25 H268A compared with USP25 WT
  t-test vs. USP25 WT control - H268A: 1.749E-05
USP25Δtip H268A; read-out: relative inhibition [%] - USP25 - H268A
  inhibition at 11.11 µM: 29.7%
USP25Δtip H268A; read-out: relative inhibition [%] - USP25 - H268A, inhibitor 33.33 µM, single replicates
  inhibition at 33.33 µM: 55.5%
USP25Δtip H268A; read-out: relative inhibition [%] - USP25 - H268A, inhibitor 100.00 µM, single replicates
  inhibition at 100 µM: 78.2%
USP25fl; 20 µM USP25, 60 µM inhibitor, mean of 4 experiments
  avg. Mol mass (10.5-14.5 ml), mean: 298.950
USP25fl; [6]
  dimer (fraction), mean: 0.777
  tetramer (fraction), mean: 0.223
USP25fl; [7]
  avg. Mol mass (10.5-14.5 ml): 298.000 and 299.300 and 295.500 and 303.000
  dimer (fraction): 0.781 and 0.775 and 0.791 and 0.760
  tetramer (fraction): 0.219 and 0.225 and 0.209 and 0.240
USP25fl; 20 µM USP25fl, 60 µM inhibitor, 45 min, average of ≥3 experiments ± SD, DMSO control 26.2 ± 1.5
  % dimer: 77.7 ± 1.1%
USP25fl; 20 µM USP25fl, 60 µM inhibitor, 45 min, average of ≥3 experiments ± SD, DMSO control 73.8 ± 1.5
  % tetramer: 22.3 ± 1.1%
USP25fl; 20 µM USP25fl, 60 µM inhibitor, 45 min, average of ≥3 experiments ± SD, DMSO control 424.7 ± 3.8
  Ø Mw: 299.0 ± 2.7 kDa
USP25fl; 10 µM USP25-fl + 5 µM inhibitor, elution volume V [mL] in the cell to the left
  MW [kDa]: 638.16 kDa and 634.82 kDa and 630.15 kDa and 628.44 kDa
USP25fl; 10 µM USP25-fl + 10 µM inhibitor, elution volume V [mL] in the cell to the left
  MW [kDa]: 647.07 kDa and 645.88 kDa and 640.88 kDa and 638.88 kDa
USP25fl; 10 µM USP25-fl + 20 µM inhibitor, elution volume V [mL] in the cell to the left
  MW [kDa]: 747.51 kDa and 739.67 kDa and 732.41 kDa and 732.02 kDa
USP25fl; SEC-MALS trace, 10 µM USP25-fl + 20 µM inhibitor, elution volume V [mL] in the cell to the left
  dRI: 3.84E-07 and 3.46E-07 and 3.10E-07 and 2.78E-07
